According to PubChem BioAssay (NCI):
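1) Cells in 96-well plates. 2) Compound, 48 h, 5 concentrations. 3) Linear interpolation between surrounding doses. 4) Unreached endpoint = highest concentration. At the GI50, growth is halved. TGI marks complete inhibition of growth.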

How the values were obtained:
Experiment in all cases: NCI tumour cell line growth inhibition, 48 h
A549 NSCLC = system: A549 NSCLC
A498 renal = system: A498 renal
RPMI-8226 leukemia = system: RPMI-8226 leukemia
SNB-19 CNS = system: SNB-19 CNS
MDA-MB-435 = system: MDA-MB-435
SN12C renal = system: SN12C renal
SK-MEL-28 melanoma = system: SK-MEL-28 melanoma
HL-60(TB) leukemia = system: HL-60(TB) leukemia
SF-268 CNS = system: SF-268 CNS
KM12 colon = system: KM12 colon

| Structure (SMILES) | TGI (A549 NSCLC) [µM] | TGI (A498 renal) [µM] | TGI (RPMI-8226 leukemia) [µM] | TGI (SNB-19 CNS) [µM] | TGI (MDA-MB-435) [µM] | TGI (SN12C renal) [µM] | TGI (SK-MEL-28 melanoma) [µM] | TGI (HL-60(TB) leukemia) [µM] | TGI (SF-268 CNS) [µM] | TGI (KM12 colon) [µM] | GI50 (A549 NSCLC) [µM] | GI50 (A498 renal) [µM] | GI50 (RPMI-8226 leukemia) [µM] | GI50 (SNB-19 CNS) [µM] | GI50 (MDA-MB-435) [µM] | GI50 (SN12C renal) [µM] | GI50 (SK-MEL-28 melanoma) [µM] | GI50 (HL-60(TB) leukemia) [µM] | GI50 (SF-268 CNS) [µM] | GI50 (KM12 colon) [µM] |
| --- | --- | --- | --- | --- | --- | --- | --- | --- | --- | --- | --- | --- | --- | --- | --- | --- | --- | --- | --- | --- |
| CO[C@@H]1[C@@H](OC2OC(C)C(OC3CC(C)(O)C(OC(=O)CC(C)C)C(C)O3)C(N(C)C)C2O)[C@@H](CC=O)C[C@@H](C)C(=O)/C=C/C2O[C@H]2C[C@@H](C)OC(=O)C[C@H]1OC(C)=O (some centres undefined) | > 100 | 52 | 47.4 | 60.1 | 45.2 | 46.2 | 34.8 | 25 | > 100 | 32.2 |  |  |  |  |  |  |  |  |  |  |
| O=C1c2ccccc2C(=O)N1c1ccc(S(=O)(=O)Nc2ncccn2)cc1 | > 100 | > 100 | > 100 | > 100 | > 100 | > 100 | > 100 | > 100 | > 100 | > 100 | > 100 | > 100 | > 100 | > 100 | > 100 | > 100 | > 100 | > 100 | > 100 | > 100 |
| CC(=O)OC1COC(S[As](C)C)C(OC(C)=O)C1OC(C)=O (centres undefined) | > 32.4 | 1.56 | 0.0245 | 49.5 | 0.358 | 2.74 | 8.89 | 0.072 | 11.6 | 9.24 | 3.51 | 0.285 |  | 14.7 | 0.0643 | 0.48 | 0.666 | < 0.0158 | 1.23 | 1.15 |
| C(=C1c2ccccc2-c2ccccc21)c1ccccn1 | 49.5 | 23.7 | > 100 | > 100 | 3.69 | > 100 | 73 | 38.5 | 57.7 | 14.2 | 7.69 | 3.51 | 16.2 | 14 | 1.72 | 12.1 | 8.12 | 4.52 | 12.4 | 3.6 |
| COC(=O)CCC(=O)c1c(C)[nH]c(/C=C2\N=C(c3ccc[nH]3)C=C2OC)c1C | 10.8 | 20.7 | 1.87 | 14.2 | 1.63 | 5.38 | 3.18 | 2.83 | 3.1 | 1.72 | 3.08 | 7.86 | 0.36 | 3.2 | 0.426 | 1.45 | 1.27 | 0.602 | 1.03 | 0.36 |
| COCCOC(=O)C1=C(C)NC2=C(C(=O)CC(c3ccccc3OC)C2)C1c1cccc(O)c1 (centres undefined) | > 72.2 | 25.9 | 31.4 | > 100 | 25.4 | > 100 | 50.6 | 36 | 53.4 | 30 | 13.1 | 10.2 | 4.01 | 16 | 5.31 | 21.7 | 12.6 | 3.2 | 15.8 | 11.5 |
| CCC(Sc1nnc2c3ccccc3n(CC)c2n1)C(=O)Nc1ccccc1OC (centres undefined) | > 100 | 6.77 | > 72.8 | > 100 | > 100 | > 100 | > 100 | 6.91 | > 100 | > 100 | 6.4 | 2.2 | 4.35 | > 100 | > 100 | 3.47 | > 100 | 3.02 | > 100 | 91.3 |
| COc1ccc(-c2n[nH]nc2-c2csc3ccccc23)cc1OC | 70.9 | 12.1 | 59 | 45.1 | 3.52 | 79.9 | 48.5 | 25.1 | 41.8 | 24.1 | 4.52 | 2.96 | 3.64 | 4.67 | 0.337 | 8.8 | 4.63 | 1.7 | 3.69 | 2.28 |
| O=C1C=C(Nc2ccccc2C(=O)CC(=O)C(=O)Nc2cccc(C(F)(F)F)c2)c2ccccc2C1=O | > 89.8 | > 100 | > 100 | > 100 | 20.9 | 36.3 | 54.8 | 24.2 | 73.3 | > 95.9 |  |  |  |  |  |  |  |  |  |  |
| O=C(COc1cccc(/C=C2\COc3ccccc3C2=O)c1)Nc1nccs1 | 6.22 | 29.2 | 3.69 | 22.1 | 7.53 | 5.25 | 5.44 | 3.44 | 3.69 | 3.15 | 2.41 | 15.7 | 1.29 | 9.93 | 2.51 | 2.08 | 2.42 | 1.59 | 1.95 | 1.71 |
| O=C1OC(c2ccc(O)c(-c3ccccc3)c2)(c2ccc(O)c(-c3ccccc3)c2)c2c(Cl)c(Cl)c(Cl)c(Cl)c21 | > 100 | > 100 | > 100 | > 100 | > 100 | > 100 | > 100 | 12.3 | > 100 | > 100 |  |  |  |  |  |  |  |  |  |  |
